Data reported in patent US8569229B2, “Compositions and methods which modulate G-protein signaling for the treatment of inflammatory disorders such as asthma and allergic conjunctivitis” (The Children's Hospital of Philadelphia, priority 2008, dated 2013).
Entries after “also recorded” stand apart in the source; their conditions may differ. Ends that are not written are not given here.

How the values were obtained:
human ASM cells = experiment: Assay of cAMP PDE activity in ASM cell lysates; type: cell-based; settings: for effect of pretreatment on PGE2-induced increase in PDE activity: PGE2 100 nM x 24 hr, peptides 30 μM (Example III)
rabbit ASM tissues [1] = experiment: Constrictor responsiveness to acetylcholine (ACh) in isolated rabbit ASM tissues, isometric tension in organ bath; settings: for effect of pretreatment on PGE2-induced increase in constrictor responsiveness to ACh: PGE2 100 nM x 24 hr; for effect of pretreatment on salmeterol-induced increase in constrictor responsiveness to ACh: salmeterol 10 μM x 24 hr
Description: (§1) Detection of PDE4D5 mRNA transcripts: Total RNA was extracted from the cultured ASM cells using the TRIzol method (Invitrogen), and cDNAs were isolated by RT-PCR using the SuperScript First Strand Synthesis System kit from Invitrogen, with the following oligonucleotide primer sets (Integrated DNA Technologies): for PDE4D5, 5′-[…]-3′ (forward; SEQ ID NO: 2) and 5′-[…]-3′ (reverse; SEQ ID NO: 3); and for β-actin, 5′-[…]-3′ (forward; SEQ ID NO: 4) and 5′-[…]-3′ (reverse; SEQ ID NO: 5). The reaction volume was 20 μl and cycling conditions used were 35 cycles of 30 sec denaturation at 95° C., followed by 30 sec annealing at 60° C. and elongation at 72° C. for 30 sec. Ex-Tag (Takara Biotechnology) was used as DNA polymerase. […] Following protein extraction and the addition of gel-loading buffer, the extracts were loaded on a 10% SDS-PAGE gel for immunoblotting after transfer to a PVDF membrane. The membranes were then incubated overnight with monoclonal mouse anti-human primary antibodies directed against phospho-CREB and -ATF1, phospho-ERK1/2, or α-actin, and levels were detected by ECL after a 1-hr incubation with a 1:2,000 dilution of HRP-conjugated rabbit anti-mouse secondary antibody, followed by exposure to autoradiography film. The protein band intensities were quantified by densitometry. siRNA-mediated knockdown of PKA: ASM cells were seeded into 6-well plates and, at ˜40% confluency, the medium was replaced with the reduced serum-containing medium, Opti-MEM (Invitrogen). The cells were then transfected twice during a 24-hr interval with two pools of three siRNA duplexes, each pool targeted against the human PKAα or PKAγ catalytic subunits (Santa Cruz Biotechnology; sc-36240 and sc-36236, respectively), or with a non-targeted control (scrambled) siRNA duplex, using Oligofectamine (Invitrogen) as the transfection agent. The pools of siRNAs were applied to each well at a final concentration of 100 nM for each siRNA preparation. […] Transfection of ASM cells with adeno-βARK-ct: Adenovirus (adeno)-βARK-ct, an adenovirus vector encoding the βARK1 carboxyl-terminal domain which blocks Gβγ signaling (25,26), and adeno-β-gal, an adenovirus vector expressing lacZ as a negative control, were constructed using the AdenoX adenovirus construction kit (BD-Clontech). Recombinant plaques were isolated and propagated in HEK293 cells (Invitrogen), with viral purification using the cesium chloride gradient method, and viral titer detected by plaque assay. The ASM cells were transfected with either of the adenoviral vectors at a multiplicity of infection (MOI) of 100, and experiments were conducted at 24 hr following adenoviral tranfections. Pharmacodynamic studies of constrictor and relaxation responsiveness in rabbit ASM tissues: Following initial sedation and subsequent general anesthesia with intramuscular injections of xylazine (10 mg/kg) and ketamine (50 mg/kg), respectively, rabbits were sacrificed with an intravenously administered overdose of sodium pentobarbital (100 mg/kg). As described previously (16), the tracheae were excised via open thoracotomy, the loose connective tissue and epithelium were scraped and removed, and the tracheae were divided into 8 ring segments, each of 6-8 mm in length. […] After these incubations, the tissues were placed in organ baths containing modified Krebs-Ringer solution aerated with 5% CO2 in oxygen (pH of 7.35-7.40), and attached to force transducers to continuously monitor isometric tension. […] The constrictor and relaxation dose-response curves were analyzed with respect to each tissue's maximal isometric contractile force (Tmax) to ACh and maximal relaxation response (Rmax) to isoproterenol from the initial level of active cholinergic contraction. Statistical analyses: Results are expressed as mean±SE values. Comparisons between groups were made using the Student's t-test (two-tailed) or ANOVA with Tukey's post-test analysis, where appropriate.

OVA-sensitized rabbits [2] = experiment: Allergic conjunctivitis response to ocular OVA challenge in OVA-sensitized rabbits; type: in vivo, rabbit; settings: 15 μl of 1 μM topically 20 minutes prior to OVA, examined at 60 minutes
Method: Similar to previous studies investigating either allergic asthma or allergic conjunctivitis in animal models, in vivo studies were conducted wherein adult NZW rabbits were initially systemically immunized with weekly intra-peritoneal (i.p.) injections of 2.5 mg ovalbumin (OVA) and 10 mg of alum adjuvant for 4-5 weeks. Following sensitization, as previously described in other animal models of allergic conjunctivitis (Groneberg D. A. et al. Allergy 58: 1101-1113, 2003), the OVA allergen was topically introduced into the conjunctival sac of the eyes of the rabbit to examine its ocular allergic inflammatory response. […] Accordingly, for each animal, 15 μl of a sterile 1 μM concentration of the MPS:anti-Gβγ peptide (prepared in PBS) was topically applied into the conjunctival sac of one eye 20 minutes prior to subsequent instillation of OVA (500 μg in 15 μl PBS), and the carrier MPS peptide alone (i.e., control “sham” pretreatment) was applied to the other eye 20 minutes prior to subsequent instillation of OVA. The eyes were then clinically examined for an acute ocular inflammatory response to OVA challenge and photographs were taken of each eye at 60 minutes following OVA challenge. […]

rabbit ASM tissues [3] = experiment: Relaxation responsiveness to isoproterenol in isolated rabbit ASM tissues half-maximally contracted with ACh; settings: for effect of pretreatment on PGE2-induced impaired relaxation to isoproterenol: PGE2 100 nM x 24 hr; for relaxation responses to isoproterenol in control serum-exposed tissues pretreated with the agent: control (non-asthmatic) serum, 24 hr; for effect of pretreatment on salmeterol-induced impaired relaxation to isoproterenol: salmeterol 10 μM x 24 hr
Description: as §1

OVA-sensitized rabbits [4] = experiment: IL-13 and IFN-γ in BALF samples of OVA-sensitized, OVA-challenged rabbits; type: in vivo, rabbit; settings: pretreated OVA-sensitized+OVA challenged rabbits
Method: In vivo studies were conducted wherein adult NZW rabbits were initially sensitized with weekly intra-peritoneal (i.p.) injections of 2.5 mg OVA and 10 mg of alum adjuvant for 4-5 weeks, and non-sensitized (control) rabbits received alum alone. Both the OVA sensitized and control animals were then challenged with either vehicle (saline) or aerosolized OVA delivered via a nebulizer. The following day, while mechanically ventilated under general anesthesia/paralysis, the rabbits' broncho-constrictor responses to intravenous (i.v.) bolus injections of cumulatively increasing doses of methacholine (MCh) were determined and induced changes in respiratory system resistance (Rrs), measured as previously described (Grunstein et al. J. Appl. Physiol: Respirat. Environ. Exercise Physiol. 57:1238-1246, 1984). Lung lavage was then performed to obtain bronchoalveolar lavage fluid (BALF) samples, and the lungs were excised for histological examination in H&E-stained paraffin-embedded 4 micron sections.

[5] = listed as Gβγ inhibitory peptide
[6] = listed as anti-Gβγ cell-permeable inhibitory peptide
[7] = listed as MPS-conjugated anti-Gβγ peptide
[8] = vehicle-exposed control tissues

## MPS-Phosducin-like protein C terminus (AAVALLPAVLLALLAVTDQLGEDFFAVDLEAFLQEFGLLPEKE; also: MPS attached) [anti-Gβγ peptide]
Human ASM cells; [5]
  effect of pretreatment on PGE2-induced increase in PDE activity: completely ablated
Human ASM cells; [6]
  effect of pretreatment on PGE2-induced increase in PDE activity: completely abrogated
Human ASM cells; salmeterol or isoproterenol 10 μM x 24 hr
  effect of pretreatment on salmeterol- and isoproterenol-induced increase in PDE activity: completely abrogated; also recorded: ablated
Rabbit ASM tissues [1]; [5]
  effect of pretreatment on PGE2-induced increase in constrictor responsiveness to ACh: prevents
Rabbit ASM tissues [1]; [6]
  effect of pretreatment on PGE2-induced increase in constrictor responsiveness to ACh: prevented
Rabbit ASM tissues [1]
  effect of pretreatment on salmeterol-induced increase in constrictor responsiveness to ACh: prevented
Rabbit ASM tissues [1]; [7]
  effect of pretreatment on salmeterol-induced increase in constrictor responsiveness to ACh: ablated
Rabbit ASM tissues [1]; [8]
  effect of the agent alone on constrictor responses to ACh: no significant effect
OVA-sensitized rabbits [2]
  clinical signs of allergic conjunctivitis after ocular OVA challenge: virtually no clinical signs of conjunctival inflammation
OVA-sensitized rabbits [2]; [7]
  clinical signs of allergic conjunctivitis after ocular OVA challenge: signs of allergic conjunctivitis are absent
Rabbit ASM tissues [3]; [5]
  effect of pretreatment on PGE2-induced impaired relaxation to isoproterenol: prevents
  relaxation responses to isoproterenol in control serum-exposed tissues pretreated with the agent: enhances
Rabbit ASM tissues [3]; [6]
  effect of pretreatment on PGE2-induced impaired relaxation to isoproterenol: prevented
Rabbit ASM tissues [3]; listed as Gβγ-inhibitory peptide
  relaxation responses to isoproterenol in control serum-exposed tissues pretreated with the agent: somewhat increased
Rabbit ASM tissues [3]
  effect of pretreatment on salmeterol-induced impaired relaxation to isoproterenol: prevented
Rabbit ASM tissues [3]; [7]
  effect of pretreatment on salmeterol-induced impaired relaxation to isoproterenol: ablated
Rabbit ASM tissues [3]; tissues passively sensitized 24 hr with AS rabbit serum
  effect of pretreatment on impaired relaxation to isoproterenol in allergic asthmatic (AS) serum-exposed tissues: prevented
Rabbit ASM tissues [3]; [8]
  effect of the agent alone on relaxation responses to isoproterenol: no significant effect
OVA-sensitized rabbits [4]
  effect on OVA challenge-induced decrease in BALF IFN-γ: prevents
  effect on OVA challenge-induced increase in BALF IL-13: prevents
